IC50 data for 22 molecules are collected here from patent US20240109917A1 (ACTELION PHARMACEUTICALS LTD, priority 2020, published 2024).

In one assay the target is VEGFR2, unphosphorylated (Homo sapiens (Human), UniProt P35968). Briefly: VEGFR ADP GLO Assay. It is filed as biochemical.
A further assay concerns the target PDGFRβ (Rattus norvegicus (Rat), UniProt Q05030). Briefly: PDGFRβ Cellular Assay (PDGFRb P-Y751 HTRF in A10 cells stimulated with PDGF-BB). It is filed as cell-based. An outline of the steps:
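Phospho-Y751 PDGFRβ was measured by HTRF in lysates of A10 rat cells. Cells received compound for 3 hours before PDGF-BB stimulation (100 ng/mL working stock).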
Background: TR-FRET usually uses a lanthanide donor and a delayed reading to cut background.

Assay [1] concerns the target Tb-labeled inactive PDGFRβ (Homo sapiens (Human), UniProt P09619). Briefly: PDGFRβ LanthaScreen Assay. It is filed as binding. The settings on record: read-out: PDGFR Lantha IC50.

Like-named read-outs stand apart in the source and are kept apart here.

Tb-labeled inactive PDGFRβ, sequence (P09619 33-1106): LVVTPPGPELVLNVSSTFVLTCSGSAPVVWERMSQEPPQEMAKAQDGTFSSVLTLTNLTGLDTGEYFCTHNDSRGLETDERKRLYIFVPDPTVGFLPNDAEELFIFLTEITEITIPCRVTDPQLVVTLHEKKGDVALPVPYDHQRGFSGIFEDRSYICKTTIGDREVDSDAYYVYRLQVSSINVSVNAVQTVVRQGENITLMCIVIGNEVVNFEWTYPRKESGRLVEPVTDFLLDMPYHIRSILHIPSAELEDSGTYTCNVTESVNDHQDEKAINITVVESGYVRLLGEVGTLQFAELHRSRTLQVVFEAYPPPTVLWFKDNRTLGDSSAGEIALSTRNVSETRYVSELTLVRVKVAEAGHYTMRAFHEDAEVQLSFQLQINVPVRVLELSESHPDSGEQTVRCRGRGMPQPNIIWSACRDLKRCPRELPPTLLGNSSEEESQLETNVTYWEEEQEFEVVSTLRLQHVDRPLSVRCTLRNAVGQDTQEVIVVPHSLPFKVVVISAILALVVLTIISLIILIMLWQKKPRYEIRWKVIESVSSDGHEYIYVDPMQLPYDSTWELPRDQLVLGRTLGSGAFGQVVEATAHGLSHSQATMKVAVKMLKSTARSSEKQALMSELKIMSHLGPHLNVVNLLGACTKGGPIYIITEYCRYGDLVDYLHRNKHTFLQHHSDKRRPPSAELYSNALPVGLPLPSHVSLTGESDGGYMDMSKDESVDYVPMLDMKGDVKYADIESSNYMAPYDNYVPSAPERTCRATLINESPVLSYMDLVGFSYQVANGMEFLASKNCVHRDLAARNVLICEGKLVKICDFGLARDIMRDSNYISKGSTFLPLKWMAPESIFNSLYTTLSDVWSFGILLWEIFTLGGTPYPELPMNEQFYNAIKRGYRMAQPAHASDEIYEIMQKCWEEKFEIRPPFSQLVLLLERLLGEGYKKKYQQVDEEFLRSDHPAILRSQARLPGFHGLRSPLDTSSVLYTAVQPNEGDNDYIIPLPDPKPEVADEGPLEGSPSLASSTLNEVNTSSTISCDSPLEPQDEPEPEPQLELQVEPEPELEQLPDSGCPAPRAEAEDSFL
PDGFRβ, sequence (Q05030 32-1097): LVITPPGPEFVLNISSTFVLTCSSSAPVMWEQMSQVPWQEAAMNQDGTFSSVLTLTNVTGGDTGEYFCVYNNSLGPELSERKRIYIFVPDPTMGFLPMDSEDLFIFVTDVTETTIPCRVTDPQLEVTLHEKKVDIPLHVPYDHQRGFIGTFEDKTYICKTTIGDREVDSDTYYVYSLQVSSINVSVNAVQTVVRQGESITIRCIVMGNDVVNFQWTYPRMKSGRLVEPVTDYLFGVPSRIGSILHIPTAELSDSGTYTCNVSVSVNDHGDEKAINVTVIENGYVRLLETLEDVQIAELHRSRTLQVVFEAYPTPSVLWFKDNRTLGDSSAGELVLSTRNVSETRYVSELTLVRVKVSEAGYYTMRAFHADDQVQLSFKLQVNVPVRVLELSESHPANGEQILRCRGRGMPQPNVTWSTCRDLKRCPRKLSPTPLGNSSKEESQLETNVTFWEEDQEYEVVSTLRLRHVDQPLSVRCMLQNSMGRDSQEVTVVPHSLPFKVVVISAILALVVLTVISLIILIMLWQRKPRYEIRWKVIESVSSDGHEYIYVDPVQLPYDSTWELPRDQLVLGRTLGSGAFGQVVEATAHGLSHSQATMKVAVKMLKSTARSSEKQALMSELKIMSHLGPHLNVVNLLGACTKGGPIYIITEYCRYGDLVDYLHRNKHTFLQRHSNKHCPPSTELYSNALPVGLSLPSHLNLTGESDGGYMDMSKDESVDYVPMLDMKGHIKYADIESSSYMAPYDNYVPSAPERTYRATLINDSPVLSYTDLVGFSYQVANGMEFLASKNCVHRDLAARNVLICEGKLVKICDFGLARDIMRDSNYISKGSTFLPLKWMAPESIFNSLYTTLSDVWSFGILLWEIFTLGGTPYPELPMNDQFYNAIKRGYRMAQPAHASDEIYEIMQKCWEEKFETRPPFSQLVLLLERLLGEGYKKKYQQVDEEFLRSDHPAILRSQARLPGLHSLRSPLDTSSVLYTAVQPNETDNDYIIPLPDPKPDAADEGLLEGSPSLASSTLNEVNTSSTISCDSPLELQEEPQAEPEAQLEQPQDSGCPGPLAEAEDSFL
VEGFR2, unphosphorylated, sequence (P35968 20-1356): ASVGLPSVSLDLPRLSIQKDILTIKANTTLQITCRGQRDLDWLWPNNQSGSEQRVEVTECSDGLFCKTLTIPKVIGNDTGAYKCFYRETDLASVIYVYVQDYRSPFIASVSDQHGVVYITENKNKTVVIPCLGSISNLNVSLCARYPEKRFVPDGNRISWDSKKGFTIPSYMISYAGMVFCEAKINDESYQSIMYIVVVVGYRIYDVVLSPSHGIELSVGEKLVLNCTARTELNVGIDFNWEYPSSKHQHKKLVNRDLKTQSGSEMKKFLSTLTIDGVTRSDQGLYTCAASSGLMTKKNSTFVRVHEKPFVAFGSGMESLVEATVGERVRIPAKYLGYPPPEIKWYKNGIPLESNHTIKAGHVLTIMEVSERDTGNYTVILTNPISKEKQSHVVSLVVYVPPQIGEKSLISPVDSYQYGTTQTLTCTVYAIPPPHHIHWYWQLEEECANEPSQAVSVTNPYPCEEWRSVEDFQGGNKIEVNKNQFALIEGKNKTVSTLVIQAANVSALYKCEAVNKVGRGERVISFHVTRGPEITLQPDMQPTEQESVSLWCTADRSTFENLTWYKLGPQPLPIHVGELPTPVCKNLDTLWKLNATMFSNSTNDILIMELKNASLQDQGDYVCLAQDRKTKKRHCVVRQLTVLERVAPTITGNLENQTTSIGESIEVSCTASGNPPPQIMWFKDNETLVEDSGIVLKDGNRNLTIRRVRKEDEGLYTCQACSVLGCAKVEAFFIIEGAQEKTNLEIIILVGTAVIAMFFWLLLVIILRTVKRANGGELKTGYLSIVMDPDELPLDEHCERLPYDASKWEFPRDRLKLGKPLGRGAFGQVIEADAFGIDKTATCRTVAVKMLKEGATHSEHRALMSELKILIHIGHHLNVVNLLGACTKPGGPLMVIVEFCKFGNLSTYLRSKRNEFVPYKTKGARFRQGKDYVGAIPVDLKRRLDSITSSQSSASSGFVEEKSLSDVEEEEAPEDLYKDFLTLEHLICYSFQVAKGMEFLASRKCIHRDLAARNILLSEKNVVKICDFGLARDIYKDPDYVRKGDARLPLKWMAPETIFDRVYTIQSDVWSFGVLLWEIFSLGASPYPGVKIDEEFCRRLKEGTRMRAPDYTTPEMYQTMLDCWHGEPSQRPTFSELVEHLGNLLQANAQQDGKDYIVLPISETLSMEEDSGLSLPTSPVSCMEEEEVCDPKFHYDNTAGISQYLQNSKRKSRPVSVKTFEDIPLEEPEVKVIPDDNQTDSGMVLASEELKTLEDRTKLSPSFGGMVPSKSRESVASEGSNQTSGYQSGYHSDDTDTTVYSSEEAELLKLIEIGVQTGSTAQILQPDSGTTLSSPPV

Consider `Cc1ncc(NC(=O)CN2CCC3(CCOC3)C2)cc1NC(=O)c1cnn2cc(-c3cnn(C)c3)sc12` (stereo not drawn) [Example 19, N-(5-(2-(2-oxa-7-azaspiro[4.4]nonan-7-yl)acetamido)-2-methylpyridin-3-yl)-2-(1-methyl-1H-pyrazol-4-yl)pyrazolo[5,1-b]thiazole-7-carboxamide], for which the IC50 – broadly, the concentration that gives 50% inhibition – against VEGFR2, unphosphorylated is greater than 7.5 µM; at PDGFRβ (read-out: PDGFR Cellular IC50), 12.9 nM; in assay [1] it was 4.2 nM.
For `Cc1ncc(NC(=O)CN2CCCC23COC3)cc1NC(=O)c1cnn2cc(-c3cnn(C)c3)sc12` [Example 20, N-(5-(2-(2-oxa-5-azaspiro[3.4]octan-5-yl)acetamido)-2-methyl-pyridin-3-yl)-2-(1-methyl-1H-pyrazol-4-yl)pyrazolo[5,1-b]thiazole-7-carboxamide], in that order: greater than 7.5 µM, 35.9 nM and 8.2 nM.
For `Cc1ncc(NC(=O)CN2CCC3(CCCO3)C2)cc1NC(=O)c1cnn2cc(-c3cnn(C)c3)sc12` (stereo not drawn) [Example 21, N-(5-(2-(1-oxa-7-azaspiro[4.4]nonan-7-yl)acetamido)-2-methylpyridin-3-yl)-2-(1-methyl-1H-pyrazol-4-yl)pyrazolo[5,1-b]thiazole-7-carboxamide], in that order: greater than 7.5 µM, 10.9 nM and 5.7 nM.
For `Cc1ncc(NC(=O)CN2CC(C)(C)C2)cc1NC(=O)c1cnn2cc(-c3cnn(C)c3)sc12` [Example 22, N-(5-(2-(3,3-dimethylazetidin-1-yl)acetamido)-2-methylpyridin-3-yl)-2-(1-methyl-1H-pyrazol-4-yl)pyrazolo[5,1-b]thiazole-7-carboxamide], in that order: greater than 7.5 µM, 5.3 nM and 8.6 nM.
For `Cc1ncc(NC(=O)CN2CCc3ccncc3C2)cc1NC(=O)c1cnn2cc(-c3cnn(C)c3)sc12` [Example 23, N-(5-(2-(3,4-dihydro-2,7-naphthyridin-2 (1H)-yl)acetamido)-2-methylpyridin-3-yl)-2-(1-methyl-1H-pyrazol-4-yl)pyrazolo[5,1-b]thiazole-7-carboxamide], the IC50 was greater than 7.5 µM on VEGFR2, unphosphorylated; 67.7 nM against PDGFRβ (PDGFR Cellular IC50); 1.3 nM in assay [1].
Take `Cc1ncc(NC(=O)CN2CCCC3(COC3)C2)cc1NC(=O)c1cnn2cc(-c3cnn(C)c3)sc12` [Example 24, N-(5-(2-(2-oxa-6-azaspiro[3.5]nonan-6-yl)acetamido)-2-methylpyridin-3-yl)-2-(1-methyl-1H-pyrazol-4-yl)pyrazolo[5,1-b]thiazole-7-carboxamide]: the IC50 against VEGFR2, unphosphorylated is greater than 7.5 µM; at PDGFRβ (read-out: PDGFR Cellular IC50), 31.8 nM; in assay [1], 4.5 nM.
On the same counts, the results for `Cc1ncc(NC(=O)CN2CCCCC23COC3)cc1NC(=O)c1cnn2cc(-c3cnn(C)c3)sc12` [Example 25, N-(5-(2-(2-oxa-5-azaspiro[3.5]nonan-5-yl)acetamido)-2-methylpyridin-3-yl)-2-(1-methyl-1H-pyrazol-4-yl)pyrazolo[5,1-b]thiazole-7-carboxamide] are greater than 7.5 µM, 27.7 nM and 6.6 nM.
On the same counts, the results for `COc1ncccc1-c1cn2ncc(C(=O)Nc3cc(NC(=O)OCCN4CCCC4(C)C)cnc3C)c2s1` [Example 254, 2-(2,2-dimethylpyrrolidin-1-yl)ethyl (5-(2-(2-methoxypyridin-3-yl)pyrazolo[5,1-b]thiazole-7-carboxamido)-6-methylpyridin-3-yl)carbamate] are greater than 7.5 µM, 6.2 nM and 2.6 nM.
For `COc1ncccc1-c1cn2ncc(C(=O)Nc3cc(NC(=O)OCC(C)N4CCCC4)cnc3C)c2s1` (stereo not drawn) [Example 255, 2-(pyrrolidin-1-yl)propyl (5-(2-(2-methoxypyridin-3-yl)pyrazolo[5,1-b]thiazole-7-carboxamido)-6-methylpyridin-3-yl)carbamate], in that order: greater than 7.5 µM, 9.3 nM and 1.9 nM.
Consider `Cc1ncc(NC(=O)OC[C@@H]2CCCN2C)cc1NC(=O)c1cnn2cc(-c3cccnc3O)sc12` [Example 256, (S)-(1-methylpyrrolidin-2-yl)methyl (5-(2-(2-hydroxypyridin-3-yl)pyrazolo[5,1-b]thiazole-7-carboxamido)-6-methylpyridin-3-yl)carbamate], for which the IC50 is greater than 7.5 µM against VEGFR2, unphosphorylated; 1340 nM on PDGFRβ (PDGFR Cellular IC50); 14.9 nM in assay [1].
For `Cc1ncc(NC(=O)OC[C@@H]2CCCN2C)cc1NC(=O)c1cnn2cc(-c3cccc4c3cnn4C)sc12` [Example 257, (S)-(1-methylpyrrolidin-2-yl)methyl (6-methyl-5-(2-(1-methyl-1H-indazol-4-yl)pyrazolo[5,1-b]thiazole-7-carboxamido)pyridin-3-yl)carbamate], the IC50 was greater than 2.5 µM against VEGFR2, unphosphorylated; 13.1 nM on PDGFRβ (read-out: PDGFR Cellular IC50); 2.6 nM in assay [1].
On the same counts, the results for `Cc1ncc(NC(=O)OC[C@@H]2CCCN2C)cc1NC(=O)c1cnn2cc(-c3cc[nH]c3)sc12` [Example 258, (S)-(1-methylpyrrolidin-2-yl)methyl (5-(2-(1H-pyrrol-3-yl)pyrazolo[5,1-b]thiazole-7-carboxamido)-6-methylpyridin-3-yl)carbamate] are greater than 7.5 µM, 48.7 nM and 4.2 nM.
`Cc1ncc(NC(=O)CN2CCCC2(C)C)cc1NC(=O)c1cnn2cc(-n3ncc4cccnc43)sc12` [Example 259, N-(5-(2-(2,2-dimethylpyrrolidin-1-yl)acetamido)-2-methylpyridin-3-yl)-2-(1H-pyrazolo[3,4-b]pyridin-1-yl)pyrazolo[5,1-b]thiazole-7-carboxamide]: the IC50 against VEGFR2, unphosphorylated is greater than 7.5 µM; on PDGFRβ (read-out: PDGFR Cellular IC50) it was 3.9 nM; in assay [1] it was 2.8 nM.
Regarding `Cc1ncc(NC(=O)CCN2CCCC2(C)C)cc1NC(=O)c1cnn2cc(-n3ncc4cccnc43)sc12` [Example 260, N-(5-(3-(2,2-dimethylpyrrolidin-1-yl)propanamido)-2-methylpyridin-3-yl)-2-(1H-pyrazolo[3,4-b]pyridin-1-yl)pyrazolo[5,1-b]thiazole-7-carboxamide], the IC50 against VEGFR2, unphosphorylated is greater than 7.5 µM; on PDGFRβ (PDGFR Cellular IC50), 3.1 nM; in assay [1], 2.1 nM.
In the case of `COCCn1cc(-c2cn3ncc(C(=O)Nc4cc(NC(=O)CN5CC(C)(C)C5)cnc4C)c3s2)cn1` [Example 261, N-(5-(2-(3,3-dimethylazetidin-1-yl)acetamido)-2-methylpyridin-3-yl)-2-(1-(2-methoxyethyl)-1H-pyrazol-4-yl)pyrazolo[5,1-b]thiazole-7-carboxamide], the concentration for half-maximal inhibition (IC50) at VEGFR2, unphosphorylated is greater than 7.5 µM; on PDGFRβ (read-out: PDGFR Cellular IC50), 4.2 nM; in assay [1], 4.9 nM.
For `Cc1ncc(NC(=O)CN2CC(C)(C)C2)cc1NC(=O)c1cnn2cc(-c3cnn(C4CS(=O)(=O)C4)c3)sc12` [Example 262, N-(5-(2-(3,3-dimethylazetidin-1-yl)acetamido)-2-methylpyridin-3-yl)-2-(1-(1,1-dioxidothietan-3-yl)-1H-pyrazol-4-yl)pyrazolo[5,1-b]thiazole-7-carboxamide], in that order: greater than 7.5 µM, 36.9 nM and 6.1 nM.
On the same counts, the results for `Cc1ncc(NC(=O)CN2CC(C)(C)C2)cc1NC(=O)c1cnn2cc(-c3cnn(CC4COC4)c3)sc12` [Example 263, N-(5-(2-(3,3-dimethylazetidin-1-yl)acetamido)-2-methylpyridin-3-yl)-2-(1-(oxetan-3-ylmethyl)-1H-pyrazol-4-yl)pyrazolo[5,1-b]thiazole-7-carboxamide] are greater than 7.5 µM, 13.9 nM and 7.9 nM.
For `Cc1ncc(NC(=O)CN2CC(C)(C)C2)cc1NC(=O)c1cnn2cc(-c3cnn(C4COC4)c3)sc12` [Example 264, N-(5-(2-(3,3-dimethylazetidin-1-yl)acetamido)-2-methylpyridin-3-yl)-2-(1-(oxetan-3-yl)-1H-pyrazol-4-yl)pyrazolo[5,1-b]thiazole-7-carboxamide], in that order: greater than 7.5 µM, 7.6 nM and 6.1 nM.
Take `Cc1ncc(NC(=O)CN2CC(C)(C)C2)cc1NC(=O)c1cnn2cc(-c3cnn(CS(C)(=O)=O)c3)sc12` [Example 265, N-(5-(2-(3,3-dimethylazetidin-1-yl)acetamido)-2-methylpyridin-3-yl)-2-(1-((methylsulfonyl)methyl)-1H-pyrazol-4-yl)pyrazolo[5,1-b]thiazole-7-carboxamide]: the half-maximal inhibitory concentration (IC50) at VEGFR2, unphosphorylated was greater than 7.5 µM; at PDGFRβ (read-out: PDGFR Cellular IC50), 114 nM; in assay [1], 8.7 nM.
For `Cc1ncc(NC(=O)CN2CC(C)(C)C2)cc1NC(=O)c1cnn2cc(-c3cnn(CC#N)c3)sc12` [Example 266, 2-(1-(cyanomethyl)-1H-pyrazol-4-yl)-N-(5-(2-(3,3-dimethylazetidin-1-yl)acetamido)-2-methylpyridin-3-yl)pyrazolo[5,1-b]thiazole-7-carboxamide], in that order: greater than 7.5 µM, 36.2 nM and 11.1 nM.
On the same counts, the results for `Cc1ncc(NC(=O)CN2CC(C)(C)C2)cc1NC(=O)c1cnn2cc(-c3cnn(CC(N)=O)c3)sc12` [Example 267, 2-(1-(2-amino-2-oxoethyl)-1H-pyrazol-4-yl)-N-(5-(2-(3,3-dimethylazetidin-1-yl)acetamido)-2-methylpyridin-3-yl)pyrazolo[5,1-b]thiazole-7-carboxamide] are greater than 7.5 µM, 701 nM and 13.7 nM.
For `Cc1ncc(NC(=O)CN2CC(C)(C)C2)cc1NC(=O)c1cnn2cc(-c3cnn(CC(F)(F)F)c3)sc12` [Example 268, N-(5-(2-(3,3-dimethylazetidin-1-yl)acetamido)-2-methylpyridin-3-yl)-2-(1-(2,2,2-trifluoroethyl)-1H-pyrazol-4-yl)pyrazolo[5,1-b]thiazole-7-carboxamide], in that order: greater than 7.5 µM, 11.6 nM and 14.5 nM.
